The values below come from PMC10002220, “In Vivo Reversal of P-Glycoprotein-Mediated Drug Resistance in a Breast Cancer Xenograft and in Leukemia Models Using a Novel, Potent, and Nontoxic Epicatechin EC31” (International Journal of Molecular Sciences, 2023).

Series [1] concerns MRP1. To be noted: Cpds at 1 μM; IC50 of DOX without/with modulator; cited from earlier work.
The subject of series [2] is LCC6MDR xenograft. Kind of series: In vivo PTX and EC31 accumulation in LCC6MDR tumor. On the procedure: (A) In vivo toxicity study of EC31 alone and of its combination with PTX was conducted. BALB/c mice were randomized into five groups with five mice in each group. Body weight of BALB/c mice during treatments was measured every two days. The treatment groups included (1) solvent control (5% NMP + 5% Cremophor EL + 90% PBS to dissolve EC31 and 5% Ethanol + 5% Cremophor EL + 90% PBS to dissolve PTX), (2) PTX (12 mg/kg i.v.), (3) EC31 (30 mg/kg i.p.), (4) EC31 (30 mg/kg i.p.) + PTX (12 mg/kg i.v.), or (5) EC31 (60 mg/kg i.p.) + PTX (12 mg/kg i.v.). The administration was performed every other day 12 times (q2d x 12). The loss of body weight or appetite and treatment-related mortality were monitored and defined as toxicity. (B) BALB/c nude mice were subcutaneously xenografted with LCC6MDR. When the tumor reached 150–300 mm^3, the mice were randomized and administered once with (1) EC31 alone, (2) PTX alone, or (3) EC31 + PTX. […] The tumors were taken out, and their weights were measured. Intratumor concentration of EC31 or PTX was measured using UPLC-MS/MS, and the actual concentration of PTX or EC31 was normalized to the tumor weight. […] Tumor volume and body weight were monitored throughout the treatment period. […] The tumor volume, tumor weight, and doubling time were measured. The number of animal deaths was recorded during the treatment period. […]

The target of series [3] is T1, P-gp (Homo sapiens, UniProt P08183). Further details: expressed in transfected cells; host or cells: MDA435/LCC6MDR (human breast cancer line, gift of Dr. Robert Clarke). To be noted: Cpds at 1 μM; IC50 of PTX without/with modulator; cited from earlier work.
T1 sequence (P08183 whole entry): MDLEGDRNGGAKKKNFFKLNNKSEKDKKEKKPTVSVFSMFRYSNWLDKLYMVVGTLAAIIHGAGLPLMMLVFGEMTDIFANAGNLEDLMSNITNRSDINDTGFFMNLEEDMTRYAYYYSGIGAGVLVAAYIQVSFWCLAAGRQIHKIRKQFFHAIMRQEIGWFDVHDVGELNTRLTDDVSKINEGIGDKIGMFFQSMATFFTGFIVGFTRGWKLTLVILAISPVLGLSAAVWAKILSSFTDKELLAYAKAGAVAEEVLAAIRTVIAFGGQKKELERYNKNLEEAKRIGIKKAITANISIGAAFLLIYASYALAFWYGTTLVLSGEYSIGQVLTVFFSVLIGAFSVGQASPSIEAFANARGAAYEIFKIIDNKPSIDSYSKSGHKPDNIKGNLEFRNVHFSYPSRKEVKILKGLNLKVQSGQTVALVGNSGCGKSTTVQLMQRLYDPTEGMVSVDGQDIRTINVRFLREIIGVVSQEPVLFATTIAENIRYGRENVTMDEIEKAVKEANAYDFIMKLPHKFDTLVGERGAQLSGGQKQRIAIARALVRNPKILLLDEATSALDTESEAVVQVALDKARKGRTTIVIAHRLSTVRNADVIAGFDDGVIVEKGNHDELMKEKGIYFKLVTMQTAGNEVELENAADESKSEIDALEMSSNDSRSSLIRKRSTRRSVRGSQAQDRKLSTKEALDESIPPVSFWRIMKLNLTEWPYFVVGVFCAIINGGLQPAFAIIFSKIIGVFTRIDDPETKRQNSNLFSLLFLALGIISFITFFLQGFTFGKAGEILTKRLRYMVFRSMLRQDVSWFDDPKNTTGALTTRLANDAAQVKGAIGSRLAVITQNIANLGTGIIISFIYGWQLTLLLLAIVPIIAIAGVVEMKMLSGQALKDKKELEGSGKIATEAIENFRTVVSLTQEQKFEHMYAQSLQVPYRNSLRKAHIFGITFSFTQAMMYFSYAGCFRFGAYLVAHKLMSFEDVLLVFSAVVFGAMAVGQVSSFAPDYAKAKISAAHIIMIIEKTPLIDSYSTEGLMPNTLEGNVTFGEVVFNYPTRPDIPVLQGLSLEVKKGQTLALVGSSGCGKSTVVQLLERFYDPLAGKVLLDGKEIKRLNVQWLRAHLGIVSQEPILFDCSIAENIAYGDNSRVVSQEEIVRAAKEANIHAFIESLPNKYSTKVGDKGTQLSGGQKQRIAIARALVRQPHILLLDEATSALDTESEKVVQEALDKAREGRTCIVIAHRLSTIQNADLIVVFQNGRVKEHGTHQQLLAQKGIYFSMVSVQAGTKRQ
Series [4] concerns P-gp. In words: DOX efflux in P388ADR cells. It counts as cell-based, mouse. The settings on record: 1 µM modulator; after 180 min of efflux; P388ADR preloaded with 20 µM DOX. On the procedure:
Figure 2 Effect of methylated catechin derivatives on intracellular DOX accumulation and DOX efflux in the P-gp-overexpressing cancer cells. […] Then, the cells were washed, and the intracellular DOX level was measured using flow cytometer. (A) LCC6MDR, (B) P388ADR, and (C) K562/P-gp. […] (D) In the efflux study, P388ADR cells were firstly incubated with 20 µM DOX for 45 min. […] At 60, 120, and 180 min, the cells were harvested, and the intracellular DOX level was measured. At 180 min, ** represents p < 0.01, and *** represents p < 0.001, both being relative to P388ADR incubated with DMSO only. […] N = 3 independent experiments. DMSO was used as a solvent control, and the highest amount used was 0.5%.
We investigated if methylated catechin derivatives could inhibit P-gp-mediated drug efflux in P-gp-overexpressing cells. […] Without a modulator, intracellularly, the DOX level was maintained at 80% and 11% after 180 min for P388 and P388ADR cells, respectively (Figure 2D). […] After 180 min of efflux, the intracellular DOX level could be maintained at 61% (p < 0.001), 59% (p < 0.01), 44 % (p < 0.001), and 37%, respectively (Figure 2D).

Series [5] concerns LCC6MDR xenograft. Kind of series: In vivo efficacy in reversing PTX resistance in LCC6MDR tumor xenograft model. The settings on record: for Doubling time: q2d x 14; for reduction in tumor volume compared to PTX alone / reduction in tumor weight compared to PTX alone: day 30. On the procedure: (A) In vivo toxicity study of EC31 alone and of its combination with PTX was conducted. BALB/c mice were randomized into five groups with five mice in each group. Body weight of BALB/c mice during treatments was measured every two days. The treatment groups included (1) solvent control (5% NMP + 5% Cremophor EL + 90% PBS to dissolve EC31 and 5% Ethanol + 5% Cremophor EL + 90% PBS to dissolve PTX), (2) PTX (12 mg/kg i.v.), (3) EC31 (30 mg/kg i.p.), (4) EC31 (30 mg/kg i.p.) + PTX (12 mg/kg i.v.), or (5) EC31 (60 mg/kg i.p.) + PTX (12 mg/kg i.v.). The administration was performed every other day 12 times (q2d x 12). The loss of body weight or appetite and treatment-related mortality were monitored and defined as toxicity. (B) BALB/c nude mice were subcutaneously xenografted with LCC6MDR. When the tumor reached 150–300 mm^3, the mice were randomized and administered once with (1) EC31 alone, (2) PTX alone, or (3) EC31 + PTX. […] The tumors were taken out, and their weights were measured. Intratumor concentration of EC31 or PTX was measured using UPLC-MS/MS, and the actual concentration of PTX or EC31 was normalized to the tumor weight. […] (C) BALB/c nude mice were subcutaneously xenografted with LCC6MDR. The treatment groups included (1) solvent, (2) PTX (12 mg/kg i.v.) alone, (3) cotreatment with EC31 (30 mg/kg i.p.) being injected 1 h prior to PTX (12 mg/kg i.v.) and with EC31 (30 mg/kg i.p.) then being given in a second injection 5 h post-PTX injection, and (4) cotreatment with EC31 (60 mg/kg i.p.) being injected 1 h prior to PTX injection (12 mg/kg i.v.). Tumor volume and body weight were monitored throughout the treatment period. There were 8 mice in each treatment group. Treatments were given as indicated by the arrows. […] At the end of LCC6MDR xenograft efficacy study (day 30), all tumors were dissected. The tumor volume, tumor weight, and doubling time were measured. The number of animal deaths was recorded during the treatment period. Statistical analysis on tumor volumes of different treatment groups was done by performing two-way ANOVA with Dunnett’s multiple comparison test after treatment period. * represents p < 0.05, ** represents p < 0.01, and *** represents p < 0.001. […] No measure is printed with it.
Here, we tested whether EC31 could reverse P-gp-mediated PTX resistance in the LCC6MDR xenograft model (Figure 5C). The treatment was given every other day 14 times (q2d x 14) from day 0 to day 26.
The LCC6MDR tumor xenograft model was studied as it was previously. About 1 × 10^6 cells of LCC6MDR cells were inoculated subcutaneously (s.c.) into the rear flank of a female BALB/c nude mouse (4–6 weeks old). When a tumor of 200–250 mm^3 was formed, it was removed and cut into cubes of 1 mm^3 and was xenografted s.c. into the rear flank of another female BALB/c nude mouse. Treatments started when the tumor reached 100 mm^3. […] Tumor growth was measured with an electronic caliper on the injection day, and the tumor volume was calculated as reported previously.

For series [6], the target named is T1, P-gp. In words: EC50 for reversing drug resistance in K562/P-gp cells (cell proliferation assay). To be noted: EC50 for Reversing MDR.
Text: EC50 was defined as the concentration at which the modulator can reduce the IC50 of an anticancer drug by half in the P-gp-overexpressing cell lines. […] The P-gp-modulating activity of methylated catechin derivatives was further studied by measuring the EC50. […] Three P-gp-overexpressing cell lines were employed, including breast cancer cell line LCC6MDR, mouse leukemia cell line P388ADR, and human leukemia cell line K562/P-gp. The anticancer drugs tested included DOX, PTX, and VCR. All values were presented as mean ± standard error of mean. N = 3–6 independent experiments.
About 6500 cells of LCC6MDR or 10,000 cells of P388ADR or K562/P-gp were seeded to each well of 96-well plate and were then incubated at 37 °C overnight. […] Cell viability was determined using CellTiter 96 AQueous Assay (Promega, Madison, WI, USA, #G1111) as reported previously [38]. The % of cell survival, IC50 of anticancer drugs towards the cell line, and EC50 of modulators were analyzed using nonlinear regression in Prism 5.0.
Where [7] appears, read: group 3: EC31 30 mg/kg + PTX + EC31 30 mg/kg.

For orientation: EC50 means the concentration that produces a half-maximal response. Take `COc1cc(OC)c2c(c1)O[C@H](c1ccc(OC)c(OC)c1)[C@H](OC(=O)c1ccc(F)c(NC(=O)c3cc(OC)c(OC)c(OC)c3)c1)C2` [EC31]: the “2008MRP1 MRP1-modulating activity RF (relative fold)” value in series [1] is 1.3. In addition, the “increase of intratumor PTX level compared to PTX alone” value in series [2] (EC31 30 mg/kg i.p. + PTX 12 mg/kg i.v., at 180 min) stood at 6 fold. The “time intratumor EC31 is maintained above its in vitro EC50 (94 nM)” value in series [2] (EC31 alone 30 mg/kg i.p., LCC6MDR xenograft) is listed as 420 min. Moreover, the “LCC6MDR P-gp-modulating activity RF (relative fold)” value in series [3] was 69.3. Besides, the “Relative intracellular DOX level (%)” value in series [4] is recorded as 44%. Further, the entries for the “Doubling time” value in series [5] (EC31 30 mg/kg i.p. (−1 h) + PTX 12 mg/kg i.v. + EC31 30 mg/kg i.p. (+5 h)) and in series [5] (EC31 60 mg/kg i.p. (−1 h) + PTX 12 mg/kg i.v.) were 15.0 days and 12.4 days, respectively. The figures for the “reduction in tumor volume compared to PTX alone” value in series [5] (setting [7]) and in series [5] (group 4: EC31 60 mg/kg + PTX) were 1.6 fold and 1.4 fold, respectively. Also, the “reduction in tumor weight compared to PTX alone” value in series [5] (setting [7]) stood at 1.5 fold; in series [5] (group 4: EC31 60 mg/kg + PTX), 1.4 fold. The EC50 in series [6] (DOX Resistance, K562/P-gp, concentration that reduces IC50 of DOX by half) was 93 ± 33 nM; in series [6] (VCR Resistance, K562, concentration that reduces IC50 of VCR by half, column head prints K562), 37 ± 10 nM.
